Experimental data published in patent publication US20080114007A1 (priority 2006, published 2008).

Target: c-fms (Homo sapiens, UniProt P07333)
Test: Autophosphorylation, fluorescence polarization competition immunoassay
Assay type: biochemical
Conditions: 10 nM c-fms, 1 mM ATP, 5 mM MgCl2, 45 min; averages of three independent measurements
Experimental: The assay buffer used was 100 mM 4-(2-hydroxyethyl)piperazine 1-ethanesulfonic acid (HEPES), pH 7.5, 1 mM 1,4-dithio-DL-threitol (DTT), 0.01% (v/v) Tween-20. Compounds were diluted in assay buffer containing 4% dimethylsulfoxide (DMSO) just prior to the assay. […] The kinase reaction was initiated by adding 2 μL of 5 mM ATP (Sigma) in assay buffer. The final concentrations in the assay were 10 nM c-fms, 1 mM ATP, 5 mM MgCl2, 2% DMSO. Control reactions were ran in each plate: in positive and negative control wells, assay buffer (made 4% in DMSO) was substituted for the compound; in addition, positive control wells received 1.2 μL of 50 mM ethylenediaminetetraacetic acid (EDTA).
At the end of the incubation, the reaction was quenched with 1.2 μL of 50 mM EDTA (EDTA was not added to the positive control wells at this point; see above). Following a 5-min incubation, each well received 10 μL of a 1:1:3 mixture of anti-phosphotyrosine antibody, 10×, PTK green tracer, 10× (vortexed), FP dilution buffer, respectively (all from PanVera, cat. # P2837). The plate was covered, incubated for 30 min at room temperature and the fluorescence polarization was read on the Analyst.
The IC50 values shown in Table 1 are averages of three independent measurements.

Sequence of c-fms (P07333 20-972): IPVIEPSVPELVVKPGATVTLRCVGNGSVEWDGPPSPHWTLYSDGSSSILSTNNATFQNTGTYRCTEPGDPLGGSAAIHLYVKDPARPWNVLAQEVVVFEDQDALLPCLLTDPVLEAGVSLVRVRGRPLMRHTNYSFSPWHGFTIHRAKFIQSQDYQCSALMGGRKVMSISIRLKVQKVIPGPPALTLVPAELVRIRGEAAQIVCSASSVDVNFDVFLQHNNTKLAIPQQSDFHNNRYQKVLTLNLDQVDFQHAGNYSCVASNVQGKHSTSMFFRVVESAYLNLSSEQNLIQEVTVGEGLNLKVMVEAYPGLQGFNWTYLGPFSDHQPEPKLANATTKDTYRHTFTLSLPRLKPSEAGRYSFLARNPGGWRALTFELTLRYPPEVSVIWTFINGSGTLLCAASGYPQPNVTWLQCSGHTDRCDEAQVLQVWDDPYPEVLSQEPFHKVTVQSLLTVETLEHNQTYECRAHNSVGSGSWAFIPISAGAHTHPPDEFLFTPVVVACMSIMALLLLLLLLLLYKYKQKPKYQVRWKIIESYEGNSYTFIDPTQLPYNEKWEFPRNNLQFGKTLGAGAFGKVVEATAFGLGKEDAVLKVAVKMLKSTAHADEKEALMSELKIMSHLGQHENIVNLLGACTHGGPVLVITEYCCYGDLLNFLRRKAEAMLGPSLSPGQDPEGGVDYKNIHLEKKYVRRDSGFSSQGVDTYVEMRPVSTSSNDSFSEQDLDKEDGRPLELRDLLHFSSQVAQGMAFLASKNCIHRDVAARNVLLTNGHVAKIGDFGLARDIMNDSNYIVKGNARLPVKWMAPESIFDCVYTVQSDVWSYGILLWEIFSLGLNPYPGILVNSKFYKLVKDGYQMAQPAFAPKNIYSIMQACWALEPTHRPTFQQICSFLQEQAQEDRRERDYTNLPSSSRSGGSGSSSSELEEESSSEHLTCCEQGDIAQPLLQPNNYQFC

Row | IC50 [nM] | Structure (SMILES)
1 | > 1000 | CNC(=O)c1cn(-c2ccc3c(c2)CCC3)c2nc(Nc3cccc(C(=O)N4CCCCC4)c3)ncc2c1=O [Cpd 113, 8-indan-5-yl-5-oxo-2-[3-(piperidine-1-carbonyl)-phenylamino]-5,8-dihydro-pyrido[2,3-d]pyrimidine-6-carboxylic acid methylamide]
2 | 2.6 | NC(=O)c1cn(-c2ccc3c(c2)CCC3)c2nc(Nc3ccc(CN4CCCCC4)cc3)ncc2c1=O [Cpd 119, 8-indan-5-yl-5-oxo-2-(4-piperidin-1-ylmethyl-phenylamino)-5,8-dihydro-pyrido[2,3-d]pyrimidine-6-carboxylic acid amide]

Target: CSF-1R (Homo sapiens, UniProt P07333)
Sequence (P07333 20-972): as above
Test: Peptide (non-phosphorylated) assay, fluorescence polarization competition immunoassay
Assay type: biochemical
Conditions: 0.7 nM CSF-1R, 308 μM SYEGNSYTFIDPTQ peptide, 1 mM ATP, 80 min; mean of at least three determinations; read-out: c-fms Peptide IC50
Outline: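 Human CSF-1R kinase reaction started with ATP and run 80 min at room temperature, then stopped with EDTA. Phosphopeptide detected by fluorescence polarization competition using anti-phosphotyrosine antibody and PTK green tracer after 30 min. Controls used 4% DMSO, with EDTA added before reaction start for positive controls.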

Row | IC50 [nM] | Structure (SMILES)
3 | 0.2 | CCN1CCC(Oc2ccc(Nc3ncc4c(=O)c(C(=O)NOC)cn(-c5ccc6c(c5)CCC6)c4n3)cc2)CC1 [Cpd 312, 2-[4-(1-ethyl-piperidin-4-yloxy)-phenylamino]-8-indan-5-yl-5-oxo-5,8-dihydro-pyrido[2,3-d]pyrimidine-6-carboxylic acid methoxy-amide]
4 | 0.3 | CONC(=O)c1cn(-c2ccc3c(c2)CCC3)c2nc(Nc3ccc(OC4CCN(C)CC4)cc3)ncc2c1=O [Cpd 313, 8-indan-5-yl-2-[4-(1-methyl-piperidin-4-yloxy)-phenylamino]-5-oxo-5,8-dihydro-pyrido[2,3-d]pyrimidine-6-carboxylic acid methoxy-amide]
5 | 0.5 | COCCOc1ccc(Nc2ncc3c(=O)c(C(=O)NOC)cn(-c4ccc5c(c4)CCC5)c3n2)cc1OCCOC [Cpd 314, 2-[3,4-bis-(2-methoxy-ethoxy)-phenylamino]-8-indan-5-yl-5-oxo-5,8-dihydro-pyrido[2,3-d]pyrimidine-6-carboxylic acid methoxy-amide]
6 | 0.5 | CONC(=O)c1cn(-c2ccc3c(c2)CCC3)c2nc(Nc3ccc(C4C[C@@]5(C)O[C@@](C)(C4)[C@H]4OC(C)(C)O[C@H]45)cc3)ncc2c1=O (stereo partly drawn) [Cpd 315, 8-indan-5-yl-5-oxo-2-[4-(2aR,1R,7S,6aS)-(1,4,4,7-tetramethyl-3,5,11-trioxa-tricyclo[5.3.1.0^2,6]undec-9-yl)-phenylamino]-5,8-dihydro-pyrido[2,3-d]pyrimidine-6-carboxylic acid methoxy-amide]
7 | 1.8 | CCc1ccc(-n2cc(C(=O)NOC)c(=O)c3cnc(Nc4ccccc4)nc32)cc1 [Cpd 316, 8-(4-ethyl-phenyl)-5-oxo-2-phenylamino-5,8-dihydro-pyrido[2,3-d]pyrimidine-6-carboxylic acid methoxy-amide]
8 | 5.5 | CCc1ccc(-n2cc(C(=O)NOC)c(=O)c3cnc(Nc4ccc(-n5cccc5)cc4)nc32)cc1 [Cpd 317, 8-(4-ethyl-phenyl)-5-oxo-2-(4-pyrrol-1-yl-phenylamino)-5,8-dihydro-pyrido[2,3-d]pyrimidine-6-carboxylic acid methoxy-amide]
9 | 5.3 | CCc1ccc(-n2cc(C(=O)NOC)c(=O)c3cnc(Nc4ccc(OC5CCN(CC(F)(F)F)CC5)cc4)nc32)cc1 [Cpd 318, 8-(4-ethyl-phenyl)-5-oxo-2-{4-[1-(2,2,2-trifluoro-ethyl)-piperidin-4-yloxy]-phenylamino}-5,8-dihydro-pyrido[2,3-d]pyrimidine-6-carboxylic acid methoxy-amide]
10 | 1.7 | CCc1ccc(-n2cc(C(=O)NOC)c(=O)c3cnc(Nc4cccc(N(C)C)c4)nc32)cc1 [Cpd 319, 2-(3-dimethylamino-phenylamino)-8-(4-ethyl-phenyl)-5-oxo-5,8-dihydro-pyrido[2,3-d]pyrimidine-6-carboxylic acid methoxy-amide]
11 | 0.5 | CCc1ccc(-n2cc(C(=O)NOC)c(=O)c3cnc(Nc4cccc(N5CCOCC5)c4)nc32)cc1 [Cpd 320, 8-(4-ethyl-phenyl)-2-(3-morpholin-4-yl-phenylamino)-5-oxo-5,8-dihydro-pyrido[2,3-d]pyrimidine-6-carboxylic acid methoxy-amide]
12 | 0.5 | CCc1ccc(-n2cc(C(=O)NOC)c(=O)c3cnc(Nc4cccc(N5CCN(C)CC5)c4)nc32)cc1 [Cpd 321, 8-(4-ethyl-phenyl)-2-[3-(4-methyl-piperazin-1-yl)-phenylamino]-5-oxo-5,8-dihydro-pyrido[2,3-d]pyrimidine-6-carboxylic acid methoxy-amide]
13 | 0.8 | CCc1ccc(-n2cc(C(=O)NOC)c(=O)c3cnc(Nc4cccc(OC5CCN(CC)CC5)c4)nc32)cc1 [Cpd 322, 8-(4-ethyl-phenyl)-2-[3-(1-ethyl-piperidin-4-yloxy)-phenylamino]-5-oxo-5,8-dihydro-pyrido[2,3-d]pyrimidine-6-carboxylic acid methoxy-amide]
14 | 1 | CCc1ccc(-n2cc(C(=O)NOC)c(=O)c3cnc(Nc4ccc(OCCCOC)c(OCCCOC)c4)nc32)cc1 [Cpd 323, 2-[3,4-bis-(3-methoxy-propoxy)-phenylamino]-8-(4-ethyl-phenyl)-5-oxo-5,8-dihydro-pyrido[2,3-d]pyrimidine-6-carboxylic acid methoxy-amide]
15 | 0.5 | CONC(=O)c1cn(-c2ccc3c(c2)CCC3)c2nc(Nc3cccc(N4CCN(C)CC4)c3)ncc2c1=O [Cpd 324, 8-indan-5-yl-2-[3-(4-methyl-piperazin-1-yl)-phenylamino]-5-oxo-5,8-dihydro-pyrido[2,3-d]pyrimidine-6-carboxylic acid methoxy-amide]
16 | 0.5 | CONC(=O)c1cn(-c2ccc3c(c2)CCC3)c2nc(Nc3cccc(N4CCOCC4)c3)ncc2c1=O [Cpd 325, 8-indan-5-yl-2-(3-morpholin-4-yl-phenylamino)-5-oxo-5,8-dihydro-pyrido[2,3-d]pyrimidine-6-carboxylic acid methoxy-amide]
17 | 1.1 | CONC(=O)c1cn(-c2ccc3c(c2)CCC3)c2nc(Nc3cccc(N(C)C)c3)ncc2c1=O [Cpd 326, 2-(3-dimethylamino-phenylamino)-8-indan-5-yl-5-oxo-5,8-dihydro-pyrido[2,3-d]pyrimidine-6-carboxylic acid methoxy-amide]
